Measured values as given in ChEMBL document CHEMBL3611969, “The effect of complexation of 3-formylrifamycin SV macrocyclic ether derivatives with metal cations and small nitrogen-containing organic molecules on antibacterial activity against S. aureus and S. epidermidis” (Bioorg Med Chem Lett, 2015).
Converted amounts (≈) assume the structure as drawn.

Tests used:
Staphylococcus aureus [1] = experiment: Antibacterial activity against Staphylococcus aureus ATCC 4163 after 18 hrs by serial microdilution method; type: functional; settings: ATCC 4163, 18 h
[2] = Octanol-water partition coefficient, log P of the compound by UV-vis method; type: physicochemical
[3] = tested on: Staphylococcus epidermidis; experiment: Antibacterial activity against Staphylococcus epidermidis ATCC 49134 after 18 hrs by serial microdilution method; type: functional; settings: ATCC 49134, 18 h
Staphylococcus aureus [4] = experiment: Antibacterial activity against Staphylococcus aureus ATCC 6538 after 18 hrs by serial microdilution method; type: functional; settings: ATCC 6538, 18 h
[5] = Solubility of the compound in water at pH 7; type: physicochemical
[6] = tested on: Staphylococcus epidermidis; experiment: Antibacterial activity against Staphylococcus epidermidis ATCC 12228 after 18 hrs by serial microdilution method; type: functional; settings: ATCC 12228, 18 h
Staphylococcus aureus [7] = experiment: Antibacterial activity against Staphylococcus aureus ATCC 25923 after 18 hrs by serial microdilution method; type: functional; settings: ATCC 25923, 18 h
[8] = tested on: Staphylococcus epidermidis; experiment: Antibacterial activity against Staphylococcus epidermidis ATCC 12228 after 18 hrs by serial microdilution method in presence of 2-chlorobenzylamine; type: functional; settings: ATCC 12228, 18 h
[9] = tested on: Staphylococcus epidermidis; experiment: Antibacterial activity against Staphylococcus epidermidis ATCC 12228 after 18 hrs by serial microdilution method in presence of isoniazid; type: functional; settings: ATCC 12228, 18 h
[10] = tested on: Staphylococcus epidermidis; experiment: Antibacterial activity against Staphylococcus epidermidis ATCC 12228 after 18 hrs by serial microdilution method in presence of histamine; type: functional; settings: ATCC 12228, 18 h
Staphylococcus aureus [11] = experiment: Antibacterial activity against Staphylococcus aureus ATCC 4163 after 18 hrs by serial microdilution method in presence of isoniazid; type: functional; settings: ATCC 4163, 18 h
Staphylococcus aureus [12] = experiment: Antibacterial activity against Staphylococcus aureus ATCC 25923 after 18 hrs by serial microdilution method in presence of isoniazid; type: functional; settings: ATCC 25923, 18 h
[13] = tested on: Staphylococcus epidermidis; experiment: Antibacterial activity against Staphylococcus epidermidis ATCC 49134 after 18 hrs by serial microdilution method in presence of histamine; type: functional; settings: ATCC 49134, 18 h
Staphylococcus aureus [14] = experiment: Antibacterial activity against Staphylococcus aureus ATCC 4163 after 18 hrs by serial microdilution method in presence of 2-chlorobenzylamine; type: functional; settings: ATCC 4163, 18 h
Staphylococcus aureus [15] = experiment: Antibacterial activity against Staphylococcus aureus ATCC 6538 after 18 hrs by serial microdilution method in presence of 4-fluorobenzylamine; type: functional; settings: ATCC 6538, 18 h
[16] = tested on: Staphylococcus epidermidis; experiment: Antibacterial activity against Staphylococcus epidermidis ATCC 49134 after 18 hrs by serial microdilution method in presence of isoniazid; type: functional; settings: ATCC 49134, 18 h
Staphylococcus aureus [17] = experiment: Antibacterial activity against Staphylococcus aureus ATCC 4163 after 18 hrs by serial microdilution method in presence of 4-fluorobenzylamine; type: functional; settings: ATCC 4163, 18 h
Staphylococcus aureus [18] = experiment: Antibacterial activity against Staphylococcus aureus ATCC 6538 after 18 hrs by serial microdilution method in presence of 2-chlorobenzylamine; type: functional; settings: ATCC 6538, 18 h
[19] = tested on: Staphylococcus epidermidis; experiment: Antibacterial activity against Staphylococcus epidermidis ATCC 12228 after 18 hrs by serial microdilution method in presence of 4-fluorobenzylamine; type: functional; settings: ATCC 12228, 18 h
Staphylococcus aureus [20] = experiment: Antibacterial activity against Staphylococcus aureus ATCC 6538 after 18 hrs by serial microdilution method in presence of histamine; type: functional; settings: ATCC 6538, 18 h
[21] = tested on: Staphylococcus epidermidis; experiment: Antibacterial activity against Staphylococcus epidermidis ATCC 49134 after 18 hrs by serial microdilution method in presence of 4-fluorobenzylamine; type: functional; settings: ATCC 49134, 18 h
[22] = tested on: Staphylococcus epidermidis; experiment: Antibacterial activity against Staphylococcus epidermidis ATCC 49134 after 18 hrs by serial microdilution method in presence of 2-chlorobenzylamine; type: functional; settings: ATCC 49134, 18 h
Staphylococcus aureus [23] = experiment: Antibacterial activity against Staphylococcus aureus ATCC 25923 after 18 hrs by serial microdilution method in presence of 4-fluorobenzylamine; type: functional; settings: ATCC 25923, 18 h
Staphylococcus aureus [24] = experiment: Antibacterial activity against Staphylococcus aureus ATCC 25923 after 18 hrs by serial microdilution method in presence of 2-chlorobenzylamine; type: functional; settings: ATCC 25923, 18 h
Staphylococcus aureus [25] = experiment: Antibacterial activity against Staphylococcus aureus ATCC 25923 after 18 hrs by serial microdilution method in presence of histamine; type: functional; settings: ATCC 25923, 18 h
Staphylococcus aureus [26] = experiment: Antibacterial activity against Staphylococcus aureus ATCC 6538 after 18 hrs by serial microdilution method in presence of isoniazid; type: functional; settings: ATCC 6538, 18 h
Staphylococcus aureus [27] = experiment: Antibacterial activity against Staphylococcus aureus ATCC 4163 after 18 hrs by serial microdilution method in presence of histamine; type: functional; settings: ATCC 4163, 18 h

Structure (SMILES)	MIC (Staphylococcus aureus [1])	logP [2]	MIC [3]	MIC (Staphylococcus aureus [4])	solubility [5]	MIC [6]	MIC (Staphylococcus aureus [7])	further results
CO[C@H]1/C=C/O[C@@]2(C)Oc3c(C)c(O)c4c(O)c(c(CNC5CCOCC5)c(O)c4c3C2=O)NC(=O)/C(C)=C\C=C\[C@H](C)[C@H](O)[C@@H](C)[C@@H](O)[C@@H](C)[C@H](OC(C)=O)[C@@H]1C	0.5 µg/mL (≈ 0.617 µM)	2.05	0.25 µg/mL (≈ 0.308 µM)	0.5 µg/mL (≈ 0.617 µM)	500 µg/mL (≈ 617 µM)	0.25 µg/mL (≈ 0.308 µM)	0.5 µg/mL (≈ 0.617 µM)	–
CO[C@H]1/C=C/O[C@@]2(C)Oc3c(C)c(O)c4c(O)c(c(CNc5ccc6c(c5)OCCOCCOc5ccccc5OCCOCCO6)c(O)c4c3C2=O)NC(=O)/C(C)=C\C=C\[C@H](C)[C@H](O)[C@@H](C)[C@@H](O)[C@@H](C)[C@H](OC(C)=O)[C@@H]1C	2 µg/mL (≈ 1.84 µM)	1.12	0.5 µg/mL (≈ 0.461 µM)	1 µg/mL (≈ 0.921 µM)	< 50 µg/mL	0.5 µg/mL (≈ 0.461 µM)	2 µg/mL (≈ 1.84 µM)	MIC [8]: 0.25 µg/mL; MIC [9]: 0.5 µg/mL; MIC [10]: 1.25 µg/mL; MIC (Staphylococcus aureus [11]): 1 µg/mL; MIC (Staphylococcus aureus [12]): 1 µg/mL; MIC [13]: 0.125 µg/mL; MIC (Staphylococcus aureus [14]): 0.25 µg/mL; MIC (Staphylococcus aureus [15]): 0.25 µg/mL; MIC [16]: 0.5 µg/mL; MIC (Staphylococcus aureus [17]): 0.25 µg/mL; MIC (Staphylococcus aureus [18]): 0.25 µg/mL; MIC [19]: 0.25 µg/mL; MIC (Staphylococcus aureus [20]): 0.125 µg/mL; MIC [21]: 0.25 µg/mL; MIC [22]: 0.25 µg/mL; MIC (Staphylococcus aureus [23]): 0.25 µg/mL; MIC (Staphylococcus aureus [24]): 0.25 µg/mL; MIC (Staphylococcus aureus [25]): 0.125 µg/mL; MIC (Staphylococcus aureus [26]): 1 µg/mL; MIC (Staphylococcus aureus [27]): 0.125 µg/mL
NCCc1c[nH]cn1 [HISTAMINE]	> 4 µg/mL	–	> 4 µg/mL	> 4 µg/mL	–	> 4 µg/mL	> 4 µg/mL	–
CO[C@H]1/C=C/O[C@@]2(C)Oc3c(C)c(O)c4c(O)c(c(CN5CCOCCOCCOCCOCC5)c(O)c4c3C2=O)NC(=O)/C(C)=C\C=C\[C@H](C)[C@H](O)[C@@H](C)[C@@H](O)[C@@H](C)[C@H](OC(C)=O)[C@@H]1C	4 µg/mL (≈ 4.31 µM)	-0.92	> 4 µg/mL	4 µg/mL (≈ 4.31 µM)	1600 µg/mL (≈ 1720 µM)	> 4 µg/mL	> 4 µg/mL	–
NCc1ccc(F)cc1	> 4 µg/mL	–	> 4 µg/mL	> 4 µg/mL	–	> 4 µg/mL	> 4 µg/mL	–
CO[C@H]1/C=C/O[C@@]2(C)Oc3c(C)c(O)c4c(O)c(c(CN5CCOCCOCCOCCOCCOCC5)c(O)c4c3C2=O)NC(=O)/C(C)=C\C=C\[C@H](C)[C@H](O)[C@@H](C)[C@@H](O)[C@@H](C)[C@H](OC(C)=O)[C@@H]1C	4 µg/mL (≈ 4.11 µM)	-0.54	2 µg/mL (≈ 2.06 µM)	4 µg/mL (≈ 4.11 µM)	1200 µg/mL (≈ 1230 µM)	2 µg/mL (≈ 2.06 µM)	> 4 µg/mL	–
[Na+].[O-][Cl+3]([O-])([O-])[O-] [SODIUM PERCHLORATE]	> 4 µg/mL	–	> 4 µg/mL	> 4 µg/mL	–	> 4 µg/mL	> 4 µg/mL	–
CO[C@H]1/C=C/O[C@@]2(C)Oc3c(C)c(O)c4c(O)c(c(CNCC5CCOCC5)c(O)c4c3C2=O)NC(=O)/C(C)=C\C=C\[C@H](C)[C@H](O)[C@@H](C)[C@@H](O)[C@@H](C)[C@H](OC(C)=O)[C@@H]1C	0.5 µg/mL (≈ 0.606 µM)	2.37	0.25 µg/mL (≈ 0.303 µM)	0.5 µg/mL (≈ 0.606 µM)	250 µg/mL (≈ 303 µM)	0.25 µg/mL (≈ 0.303 µM)	0.5 µg/mL (≈ 0.606 µM)	–
NCc1ccccc1Cl	> 4 µg/mL	–	> 4 µg/mL	> 4 µg/mL	–	> 4 µg/mL	> 4 µg/mL	–
[Li+].[O-][Cl+3]([O-])([O-])[O-]	> 4 µg/mL	–	> 4 µg/mL	> 4 µg/mL	–	> 4 µg/mL	> 4 µg/mL	–
CO[C@H]1/C=C/O[C@@]2(C)Oc3c(C)c(O)c4c(O)c(c(C=O)c(O)c4c3C2=O)NC(=O)/C(C)=C\C=C\[C@H](C)[C@H](O)[C@@H](C)[C@@H](O)[C@@H](C)[C@H](OC(C)=O)[C@@H]1C	0.5 µg/mL (≈ 0.689 µM)	–	0.125 µg/mL (≈ 0.172 µM)	0.5 µg/mL (≈ 0.689 µM)	–	0.125 µg/mL (≈ 0.172 µM)	0.5 µg/mL (≈ 0.689 µM)	–
CO[C@H]1/C=C/O[C@@]2(C)Oc3c(C)c(O)c4c(O)c(c(CNc5ccc6c(c5)OCCOCCOCCOCCO6)c(O)c4c3C2=O)NC(=O)/C(C)=C\C=C\[C@H](C)[C@H](O)[C@@H](C)[C@@H](O)[C@@H](C)[C@H](OC(C)=O)[C@@H]1C	2 µg/mL (≈ 2.01 µM)	0.2	0.5 µg/mL (≈ 0.503 µM)	2 µg/mL (≈ 2.01 µM)	–	0.5 µg/mL (≈ 0.503 µM)	2 µg/mL (≈ 2.01 µM)	MIC [8]: 0.25 µg/mL; MIC [9]: 0.25 µg/mL; MIC [10]: 1.25 µg/mL; MIC (Staphylococcus aureus [11]): 1 µg/mL; MIC (Staphylococcus aureus [12]): 1 µg/mL; MIC [13]: 0.125 µg/mL; MIC (Staphylococcus aureus [14]): 0.5 µg/mL; MIC (Staphylococcus aureus [15]): 0.5 µg/mL; MIC [16]: 0.25 µg/mL; MIC (Staphylococcus aureus [17]): 0.5 µg/mL; MIC (Staphylococcus aureus [18]): 0.5 µg/mL; MIC [19]: 0.25 µg/mL; MIC (Staphylococcus aureus [20]): 0.125 µg/mL; MIC [21]: 0.25 µg/mL; MIC [22]: 0.25 µg/mL; MIC (Staphylococcus aureus [23]): 0.5 µg/mL; MIC (Staphylococcus aureus [24]): 0.5 µg/mL; MIC (Staphylococcus aureus [25]): 0.125 µg/mL; MIC (Staphylococcus aureus [26]): 1 µg/mL; MIC (Staphylococcus aureus [27]): 0.125 µg/mL
NNC(=O)c1ccncc1 [ISONIAZID]	> 4 µg/mL	–	> 4 µg/mL	> 4 µg/mL	–	> 4 µg/mL	> 4 µg/mL	–
CO[C@H]1/C=C/O[C@@]2(C)Oc3c(C)c(O)c4c(O)c(c(/C=N/N5CCN(C)CC5)c(O)c4c3C2=O)NC(=O)/C(C)=C\C=C\[C@H](C)[C@H](O)[C@@H](C)[C@@H](O)[C@@H](C)[C@H](OC(C)=O)[C@@H]1C [RIFAMPIN]	0.016 µg/mL (≈ 0.0194 µM)	–	0.008 µg/mL (≈ 0.00972 µM)	0.016 µg/mL (≈ 0.0194 µM)	–	0.008 µg/mL (≈ 0.00972 µM)	0.016 µg/mL (≈ 0.0194 µM)	–
